Results from patent US20240382482A1, “PLASMA KALLIKREIN INHIBITORS” (TAKEDA PHARMACEUTICAL COMPANY LIMITED, priority 2021, published 2024).

Key:
[1] = molecular target: human activated kallikrein enzyme (Homo sapiens, UniProt P03952); assay: Inhibition of human activated kallikrein enzyme, fluorogenic peptide substrate assay (500 pM enzyme format); assay type: biochemical; conditions: 500 pM activated kallikrein, 300 μM PFR-AMC substrate, 30 min preincubation, 10 min reaction, room temperature; read-out: Primary Dose Response Assay: Average EC50
Sequence of human activated kallikrein enzyme (P03952 391-638 limits assumed): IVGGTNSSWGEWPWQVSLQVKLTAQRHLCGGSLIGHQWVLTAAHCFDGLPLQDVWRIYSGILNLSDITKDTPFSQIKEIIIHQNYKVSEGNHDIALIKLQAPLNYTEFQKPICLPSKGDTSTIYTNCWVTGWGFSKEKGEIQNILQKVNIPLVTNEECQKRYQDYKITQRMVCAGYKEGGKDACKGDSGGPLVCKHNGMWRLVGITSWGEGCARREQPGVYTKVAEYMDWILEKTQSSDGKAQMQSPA
Sequence of human activated kallikrein enzyme (P03952 20-390 partner limits assumed): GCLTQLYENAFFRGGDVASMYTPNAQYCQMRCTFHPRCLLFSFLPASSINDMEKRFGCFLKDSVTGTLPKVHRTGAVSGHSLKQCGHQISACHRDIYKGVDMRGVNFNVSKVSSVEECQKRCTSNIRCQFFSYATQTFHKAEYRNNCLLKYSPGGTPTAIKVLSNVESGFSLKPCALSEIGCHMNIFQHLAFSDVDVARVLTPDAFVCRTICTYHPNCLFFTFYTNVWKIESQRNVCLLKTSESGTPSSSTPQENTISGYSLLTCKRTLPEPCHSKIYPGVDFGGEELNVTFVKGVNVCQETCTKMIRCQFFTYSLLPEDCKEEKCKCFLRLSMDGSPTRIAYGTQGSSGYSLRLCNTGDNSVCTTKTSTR
Procedure, shortened: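 500 pM enzyme preincubated 30 min at room temperature with inhibitor in 20 mM Tris pH 7.5, 150 mM NaCl, 1 mM EDTA, 0.1% PEG-400, 0.1% Triton X-100. Reaction started with 300 μM PFR-AMC and run 10 min at room temperature. AMC fluorescence read at ex 380/em 460 nm, and EC50 values reported as ranges.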

[2] = molecular target: T1, plasma kallikrein (Homo sapiens, UniProt P03952); assay: Neat human plasma assay (fluorogenic peptide), contact pathway-activated plasma; assay type: biochemical; conditions: sodium citrate human plasma (78% final), 10 nM human FXIIa, 100 μM PFR-AMC, room temperature
T1 construct: added to sodium citrate collected human or rat plasma in a 96-well microplate; from tissue
T1 sequence (P03952 391-638 limits assumed): as the sequence (P03952 391-638 limits assumed) above
T1 sequence (P03952 20-390 partner limits assumed): as the sequence (P03952 20-390 partner limits assumed) above
Method: To analyze inhibition of plasma kallikrein in an ex vivo setting, the potency of compounds was measure in contact pathway-activated plasma assays. In a fluorogenic peptide substrate assay, test compounds dissolved in DMSO were added to sodium citrate collected human or rat plasma in a 96-well microplate. Alternatively, citrated plasma was collected from rats administered the compounds orally or by IV. 10 nM of human FXIIa (Enzyme Research Laboratories) diluted in PKa buffer (20 mM Tris-HCl, pH 7.5, 150 mM NaCl, 1 mM EDTA, 0.1% PEG-8000, and 0.1% Triton X-100) was added to the plasma, followed by the 100 μM of the profluorescent, synthetic plasma kallikrein substrate PFR-AMC (also diluted in PKa buffer). Final plasma concentration in the reaction was 78%. Fluorescence was immediately monitored by excitation/emission wavelengths of 360 nm/480 nm respectively over a period of 5 minutes in a microplate reader. The resulting linear increase in fluorescence emission (reflecting PKa proteolysis of PFR-AMC substrate) was fit to extract a proteolytic rate (fluorescent units over time), and this rate was subsequently plotted against compound inhibitor concentration. Resulting plots were fit to a standard 4-parameter IC50/IC90 equation to determine min/max values, IC50/90, and slope. All experimental steps were performed at room temperature.

EC50 [1] | IC90 [2] | Compound
≤ 0.005 µM | 5 to 25 µM | Cc1cc(N)nc(C)c1CNc1cc(OCc2cn3cc(C4CC4)ccc3n2)ncn1 [Example 107, N-((6-amino-2,4-dimethylpyridin-3-yl)methyl)-6-((6-cyclopropylimidazo[1,2-a]pyridin-2-yl)methoxy)pyrimidin-4-amine]
≤ 0.005 µM | 0.5 to 5 µM | N#Cc1cc(C2CC2)cn2cc(CNc3ccnc(NC(=O)Cc4ncn5ccc(Cl)cc45)c3)nc12 [Example 30, 2-(7-chloroimidazo[1,5-a]pyridin-1-yl)-N-(4-(((8-cyano-6-cyclopropylimidazo[1,2-a]pyridin-2-yl)methyl)amino)pyridin-2-yl)acetamide]
≤ 0.005 µM | 0.5 to 5 µM | O=C(Cc1ncn2ccc(Cl)cc12)Nc1cc(NCc2cn3cc(C4CC4)ccc3n2)ncn1 [Example 1, 2-(7-chloroimidazo[1,5-a]pyridin-1-yl)-N-(6-(((6-cyclopropylimidazo[1,2-a]pyridin-2-yl)methyl)amino)pyrimidin-4-yl)acetamide]
≤ 0.005 µM | ≤ 0.5 µM | O=C(Cc1ncn2ccc(Cl)cc12)Nc1cc(NCc2cn3cc(C4CC4)cc(CO)c3n2)ccn1 [Example 52, 2-(7-chloroimidazo[1,5-a]pyridin-1-yl)-N-(4-(((6-cyclopropyl-8-(hydroxymethyl)imidazo[1,2-a]pyridin-2-yl)methyl)amino)pyridin-2-yl)acetamide]
≤ 0.005 µM | 0.5 to 5 µM | COc1ccc(-n2cnnn2)c(CNc2cc(NCc3cn4cc(C5CC5)ccc4n3)ncn2)c1F [Example 55, N^4-((6-cyclopropylimidazo[1,2-a]pyridin-2-yl)methyl)-N^6-(2-fluoro-3-methoxy-6-(1H-tetrazol-1-yl)benzyl)pyrimidine-4,6-diamine]
≤ 0.005 µM | 0.5 to 5 µM | CN1C(=O)CN(c2cc(C3CC3)cn3cc(CNc4cc(NC(=O)Cc5ncn6ncc(Cl)cc56)ncn4)nc23)C1=O [Example 141, 2-(3-chloroimidazo[1,5-b]pyridazin-5-yl)-N-(6-(((6-cyclopropyl-8-(3-methyl-2,4-dioxoimidazolidin-1-yl)imidazo[1,2-a]pyridin-2-yl)methyl)amino)pyrimidin-4-yl)acetamide]
0.05 to 0.5 µM |  | O[C@H]1C[C@H](c2cn3cc(C4CC4)ccc3n2)N(c2cc(NCc3cnc4[nH]cc(Cl)c4c3)ncn2)C1 [Example 137, (3S,5R)-1-(6-(((3-chloro-1H-pyrrolo[2,3-b]pyridin-5-yl)methyl)amino)pyrimidin-4-yl)-5-(6-cyclopropylimidazo[1,2-a]pyridin-2-yl)pyrrolidin-3-ol]
≤ 0.005 µM |  | CC(O)c1nc(NCc2cn3cc(C4CC4)ccc3n2)cc(NC(=O)Cc2ncn3ccc(Cl)cc23)n1 (stereo not drawn) [Example 103, 2-(7-chloroimidazo[1,5-a]pyridin-1-yl)-N-(6-(((6-cyclopropylimidazo[1,2-a]pyridin-2-yl)methyl)amino)-2-(1-hydroxyethyl)pyrimidin-4-yl)acetamide]
≤ 0.005 µM |  | Cc1cc(N)nc(C)c1CNc1cc(NCc2cn3cc(C4CC4)ccc3n2)ncn1 [Example 111, N^4-((6-amino-2,4-dimethylpyridin-3-yl)methyl)-N^6-((6-cyclopropylimidazo[1,2-a]pyridin-2-yl)methyl)pyrimidine-4,6-diamine]
0.5 to 9 µM |  | COc1ccc(C#N)c(CC(=O)Nc2cc(NCc3cn4cc(C5CC5)ccc4n3)ncn2)c1F [Example 3, 2-(6-cyano-2-fluoro-3-methoxyphenyl)-N-(6-(((6-cyclopropylimidazo[1,2-a]pyridin-2-yl)methyl)amino)pyrimidin-4-yl)acetamide]
0.05 to 0.5 µM |  | CCOC(=O)CCc1nc(NCc2c(C)cc(C(=N)NO)cc2C)cc(OCc2cn3cc(C4CC4)ccc3n2)n1 [Example 73, ethyl 3-(4-((6-cyclopropylimidazo[1,2-a]pyridin-2-yl)methoxy)-6-((4-(N-hydroxycarbamimidoyl)-2,6-dimethylbenzyl)amino)pyrimidin-2-yl)propanoate]
≤ 0.005 µM |  | O=C(Nc1cc(NCc2cn3cc(C4CC4)ccc3n2)ncn1)C(=O)c1ncn2ccc(Cl)cc12 [Example 54, 2-(7-chloroimidazo[1,5-a]pyridin-1-yl)-N-(6-(((6-cyclopropylimidazo[1,2-a]pyridin-2-yl)methy)amino)pyrimidin-4-yl)-2-oxoacetamide]
0.05 to 0.5 µM |  | O=C(Nc1cc(NCc2cn3cc(C4CC4)ccc3n2)ccn1)c1ccc2ccc(Cl)cc2c1 [Example 118, 7-chloro-N-(4-(((6-cyclopropylimidazo[1,2-a]pyridin-2-yl)methyl)amino)pyridin-2-yl)-2-naphthamide]
0.005 to 0.05 µM |  | COc1ccc(-n2cnnn2)c(CNc2cc(C(O)c3cn4cc(C5CC5)ccc4n3)ncn2)c1F (stereo not drawn) [Example 63, (6-cyclopropylimidazo[1,2-a]pyridin-2-yl)(6-((2-fluoro-3-methoxy-6-(H-tetrazol-1-yl)benzyl)amino)pyrimidin-4-yl)methanol]
0.005 to 0.05 µM |  | O=C(Cc1ncn2ccc(Cl)cc12)Nc1cncnc1NCc1cn2cc(C3CC3)cc(CO)c2n1 [Example 41, 2-(7-chloroimidazo[1,5-a]pyridin-1-yl)-N-(4-(((6-cyclopropyl-8-(hydroxymethyl)imidazo[1,2-a]pyridin-2-yl)methyl)amino)pyrimidin-5-yl)acetamide]
0.005 to 0.05 µM |  | COCCOc1nc(NCc2cn3cc(C4CC4)ccc3n2)cc(NC(=O)Cc2ncn3ccc(Cl)cc23)n1 [Example 100, 2-(7-chloroimidazo[1,5-a]pyridin-1-yl)-N-(6-(((6-cyclopropylimidazo[1,2-a]pyridin-2-yl)methyl)amino)-2-(2-methoxyethoxy)pyrimidin-4-yl)acetamide]
≤ 0.005 µM |  | CC(=O)c1nc(NCc2cn3cc(C4CC4)ccc3n2)cc(NC(=O)Cc2ncn3ccc(Cl)cc23)n1 [Example 102, N-(2-acetyl-6-(((6-cyclopropylimidazo[1,2-a]pyridin-2-yl)methyl)amino)pyrimidin-4-yl)-2-(7-chloroimidazo[1,5-a]pyridin-1-yl)acetamide]
0.005 to 0.05 µM |  | COc1ccnc(CC(=O)Nc2cc(NCc3cn4cc(C5CC5)cc(N5CCCC5=O)c4n3)ccn2)c1F [Example 24, N-(4-(((6-cyclopropyl-8-(2-oxopyrrolidin-1-yl)imidazo[1,2-a]pyridin-2-yl)methyl)amino)pyridin-2-yl)-2-(3-fluoro-4-methoxypyridin-2-yl)acetamide]
0.5 to 9 µM |  | CC(C(=O)Nc1cc(C(F)(F)c2cn3cc(C4CC4)ccc3n2)ncn1)c1ncn2ccc(Cl)cc12 (stereo not drawn) [Example 61, 2-(7-chloroimidazo[1,5-a]pyridin-1-yl)-N-(6-((6-cyclopropylimidazo[1,2-a]pyridin-2-yl)difluoromethyl)pyrimidin-4-yl)propanamide]
≤ 0.005 µM |  | Cc1cc(C(=N)N)cc(C)c1CNc1cc(OCc2cn3cc(C4CC4)ccc3n2)nc(-c2nn[nH]n2)n1 [Example 91, 4-(((6-((6-cyclopropylimidazo[1,2-a]pyridin-2-yl)methoxy)-2-(2H-tetrazol-5-yl)pyrimidin-4-yl)amino)methyl)-3,5-dimethylbenzimidamide]
0.005 to 0.05 µM |  | O=C(Cc1ncn2ccc(Cl)cc12)Nc1cc(OCc2cn3cc(C4CC4)ccc3n2)ncn1 [Example 33, 2-(7-chloroimidazo[1,5-a]pyridin-1-yl)-N-(6-((6-cyclopropylimidazo[1,2-a]pyridin-2-yl)methoxy)pyrimidin-4-yl)acetamide]
